# Results published in EP0555116B1, “Compositions based on antiseptics and their applications” (HUTCHINSON, priority 1992, dated 1993).
# Assays:
# S. aureus ATCC 6538 = experiment: Growth inhibition test (DGHM, Essai 2, Tables A-C), 72 h at 37°C; non/A/B/C = without or with inactivating substances A, B, C; assay type: cell-based, Staphylococcus aureus; settings: for concentration en substance active inhibant la croissance: antiseptique seul
# Description: (§1) Un autre essai a été réalisé à partir des solutions suivantes : • 100 ml d'une solution à 0,1 % de digluconate de chlorhexidine (pH 6) et • 100 ml d'une solution à 0,1 % de Bardac 22®.
# (§2) L'activité de ces solutions, seules ou en combinaison a été plus particulièrement testée vis-à-vis de Staphylococcus aureus ATCC 6538, Escherichia coli ATCC 11229 et Candida albicans ATCC 10231.
# (§3) Les tests ont été réalisés conformément au protocole décrit dans le Chapitre I/2.1 et 2.2 de Richtlinien für die Prüfung und Bewertung chemischer Desinfektionsverfahren der DGHM, Stand 1.1., 1981).
# (§4) Les Tableaux A, B et C illustrent respectivement l'activité bactéricide et fongicide d'une solution aqueuse à 0,1 % de digluconate de chlorhexidine, d'une solution aqueuse à 0,1 % de Bardac 22® et d'un mélange à part égale des deux composés. Les protocoles dont ces Tableaux illustrent les résultats comprennent une incubation de 72 heures à 37°C et l'utilisation, comme témoins, des substances inactivantes suivantes : A : Tween® 80 3 % + lécithine 0,3 % + cystéine 0,1 %; B : Tween® 80 3 % + saponine 3 % + cystéine 0,1 % + histidine 0,1 %; C : Tween® 80 3 % + lécithine 0,3 % + histidine 0,1 % + thiosulfate de sodium 0,5 %.
# (§5) Dans ces Tableaux, le signe "+" indique une croissance et le signe "-" l'absence de croissance.
# [1] = tested on: cellules fibroblastiques humaines; experiment: Cytotoxicity control of the products on human fibroblast cultures (10 tubes, 3 days); assay type: cell-based; settings: pur et dilutions 10^-1 à 10^-3, 0,1 ml dans 1 ml
# Description: On réalise des contrôles de cytotoxicité des produits pour les cultures cellulaires utilisées dans les tests, c'est-à-dire les cellules fibroblastiques humaines.
# Les cellules sont cultivées en milieu de Dulbecco enrichi en sérum de veau foetal à 10 %; au moment de leur utilisation, les cellules sont lavées et on utilise le même milieu de culture, mais dépourvu de sérum de veau.
# Pour chaque produit testé ou chaque composition, on a utilisé 10 tubes de culture cellulaire et après inoculation du produit, les tubes ont été surveillés pendant trois jours.
# Chaque produit a été successivement utilisé pur, et aux dilutions 10^-1, 10^-2, 10^-3 et ajouté aux tubes de culture contenant 1 ml de milieu nutritif, sous le volume de 0,1 ml.
# E. coli ATCC 11229 = experiment: Growth inhibition test (DGHM, Essai 2, Tables A-C), 72 h at 37°C; non/A/B/C = without or with inactivating substances A, B, C; assay type: cell-based, Escherichia coli; settings: for concentration en substance active inhibant la croissance: antiseptique seul
# Description: as §1, §2, §3, §4, §5
structure (smiles),measurement,setting,value
"CCCCCCCCCC[N+](C)(C)CCCCCCCCCC [Bardac®, chlorure de didécyldiméthylammonium]",croissance,"S. aureus ATCC 6538; Conc. 0,1 % (vol/vol), A",+
same,croissance,"S. aureus ATCC 6538; Conc. 0,1 % (vol/vol), B",+
same,croissance,"S. aureus ATCC 6538; Conc. 0,1 % (vol/vol), C",+
same,croissance,"S. aureus ATCC 6538; Conc. 0,1 % (vol/vol), non",-
same,croissance,"S. aureus ATCC 6538; Conc. 0,05 % (vol/vol), A",+
same,croissance,"S. aureus ATCC 6538; Conc. 0,5 % (vol/vol), A",+
same,croissance,"S. aureus ATCC 6538; Conc. 0,05 % (vol/vol), B",+
same,croissance,"S. aureus ATCC 6538; Conc. 0,5 % (vol/vol), B",+
same,croissance,"S. aureus ATCC 6538; Conc. 0,05 % (vol/vol), C",+
same,croissance,"S. aureus ATCC 6538; Conc. 0,5 % (vol/vol), C",+
same,croissance,"S. aureus ATCC 6538; Conc. 0,05 % (vol/vol), non",+
same,croissance,"S. aureus ATCC 6538; Conc. 0,5 % (vol/vol), non",-
same,croissance,"S. aureus ATCC 6538; Conc. 1,0 % (vol/vol), A",+
same,croissance,"S. aureus ATCC 6538; Conc. 1,0 % (vol/vol), B",+
same,croissance,"S. aureus ATCC 6538; Conc. 1,0 % (vol/vol), C",+
same,croissance,"S. aureus ATCC 6538; Conc. 1,0 % (vol/vol), non",-
same,croissance,"S. aureus ATCC 6538; Conc. 0,00625 % (vol/vol), A",+
same,croissance,"S. aureus ATCC 6538; Conc. 0,00625 % (vol/vol), B",+
same,croissance,"S. aureus ATCC 6538; Conc. 0,00625 % (vol/vol), C",+
same,croissance,"S. aureus ATCC 6538; Conc. 0,00625 % (vol/vol), non",+
same,croissance,"S. aureus ATCC 6538; Conc. 0,0125 % (vol/vol), A",+
same,croissance,"S. aureus ATCC 6538; Conc. 0,0125 % (vol/vol), B",+
same,croissance,"S. aureus ATCC 6538; Conc. 0,0125 % (vol/vol), C",+
same,croissance,"S. aureus ATCC 6538; Conc. 0,0125 % (vol/vol), non",+
same,croissance,"S. aureus ATCC 6538; Conc. 0,025 % (vol/vol), A",+
same,croissance,"S. aureus ATCC 6538; Conc. 0,025 % (vol/vol), B",+
same,croissance,"S. aureus ATCC 6538; Conc. 0,025 % (vol/vol), C",+
same,croissance,"S. aureus ATCC 6538; Conc. 0,025 % (vol/vol), non",+
same,concentration en substance active inhibant la croissance,S. aureus ATCC 6538,"0,0001%"
same,toxicité pour les cultures cellulaires,"[1]; solution à 0,04 %",non toxique à la dilution 10^-3
same,croissance,"E. coli ATCC 11229; Conc. 0,1 % (vol/vol), A",+
same,croissance,"E. coli ATCC 11229; Conc. 0,1 % (vol/vol), B",+
same,croissance,"E. coli ATCC 11229; Conc. 0,1 % (vol/vol), C",+
same,croissance,"E. coli ATCC 11229; Conc. 0,1 % (vol/vol), non",+
same,croissance,"E. coli ATCC 11229; Conc. 0,05 % (vol/vol), A",+
same,croissance,"E. coli ATCC 11229; Conc. 0,5 % (vol/vol), A",+
same,croissance,"E. coli ATCC 11229; Conc. 0,05 % (vol/vol), B",+
same,croissance,"E. coli ATCC 11229; Conc. 0,5 % (vol/vol), B",+
same,croissance,"E. coli ATCC 11229; Conc. 0,05 % (vol/vol), C",+
same,croissance,"E. coli ATCC 11229; Conc. 0,5 % (vol/vol), C",+
same,croissance,"E. coli ATCC 11229; Conc. 0,05 % (vol/vol), non",+
same,croissance,"E. coli ATCC 11229; Conc. 0,5 % (vol/vol), non",-
same,croissance,"E. coli ATCC 11229; Conc. 1,0 % (vol/vol), A",+
same,croissance,"E. coli ATCC 11229; Conc. 1,0 % (vol/vol), B",+
same,croissance,"E. coli ATCC 11229; Conc. 1,0 % (vol/vol), C",+
same,croissance,"E. coli ATCC 11229; Conc. 1,0 % (vol/vol), non",-
same,croissance,"E. coli ATCC 11229; Conc. 0,00625 % (vol/vol), A",+
same,croissance,"E. coli ATCC 11229; Conc. 0,00625 % (vol/vol), B",+
same,croissance,"E. coli ATCC 11229; Conc. 0,00625 % (vol/vol), C",+
same,croissance,"E. coli ATCC 11229; Conc. 0,00625 % (vol/vol), non",+
same,croissance,"E. coli ATCC 11229; Conc. 0,0125 % (vol/vol), A",+
same,croissance,"E. coli ATCC 11229; Conc. 0,0125 % (vol/vol), B",+
same,croissance,"E. coli ATCC 11229; Conc. 0,0125 % (vol/vol), C",+
same,croissance,"E. coli ATCC 11229; Conc. 0,0125 % (vol/vol), non",+
same,croissance,"E. coli ATCC 11229; Conc. 0,025 % (vol/vol), A",+
same,croissance,"E. coli ATCC 11229; Conc. 0,025 % (vol/vol), B",+
same,croissance,"E. coli ATCC 11229; Conc. 0,025 % (vol/vol), C",+
same,croissance,"E. coli ATCC 11229; Conc. 0,025 % (vol/vol), non",+
same,concentration en substance active inhibant la croissance,E. coli ATCC 11229,"0,0005%"
"[H]/N=C(\N/C(=N/[H])NCCCCCCNC(=N)NC(=N)Nc1ccc(Cl)cc1)Nc1ccc(Cl)cc1 [Chlorhexidine, digluconate de chlorhexidine, reference compound]",croissance,"S. aureus ATCC 6538; Conc. 0,1 % (vol/vol), A",+
same,croissance,"S. aureus ATCC 6538; Conc. 0,1 % (vol/vol), B",+
same,croissance,"S. aureus ATCC 6538; Conc. 0,1 % (vol/vol), C",+
same,croissance,"S. aureus ATCC 6538; Conc. 0,1 % (vol/vol), non",+
same,croissance,"S. aureus ATCC 6538; Conc. 0,05 % (vol/vol), A",+
same,croissance,"S. aureus ATCC 6538; Conc. 0,5 % (vol/vol), A",+
same,croissance,"S. aureus ATCC 6538; Conc. 0,05 % (vol/vol), B",+
same,croissance,"S. aureus ATCC 6538; Conc. 0,5 % (vol/vol), B",+
same,croissance,"S. aureus ATCC 6538; Conc. 0,05 % (vol/vol), C",+
same,croissance,"S. aureus ATCC 6538; Conc. 0,5 % (vol/vol), C",+
same,croissance,"S. aureus ATCC 6538; Conc. 0,05 % (vol/vol), non",+
same,croissance,"S. aureus ATCC 6538; Conc. 0,5 % (vol/vol), non",-
same,croissance,"S. aureus ATCC 6538; Conc. 1,0 % (vol/vol), A",+
same,croissance,"S. aureus ATCC 6538; Conc. 1,0 % (vol/vol), B",+
same,croissance,"S. aureus ATCC 6538; Conc. 1,0 % (vol/vol), C",+
same,croissance,"S. aureus ATCC 6538; Conc. 1,0 % (vol/vol), non",-
same,croissance,"S. aureus ATCC 6538; Conc. 0,00625 % (vol/vol), A",+
same,croissance,"S. aureus ATCC 6538; Conc. 0,00625 % (vol/vol), B",+
same,croissance,"S. aureus ATCC 6538; Conc. 0,00625 % (vol/vol), C",+
same,croissance,"S. aureus ATCC 6538; Conc. 0,00625 % (vol/vol), non",+
same,croissance,"S. aureus ATCC 6538; Conc. 0,0125 % (vol/vol), A",+
same,croissance,"S. aureus ATCC 6538; Conc. 0,0125 % (vol/vol), B",+
same,croissance,"S. aureus ATCC 6538; Conc. 0,0125 % (vol/vol), C",+
same,croissance,"S. aureus ATCC 6538; Conc. 0,0125 % (vol/vol), non",+
same,croissance,"S. aureus ATCC 6538; Conc. 0,025 % (vol/vol), A",+
same,croissance,"S. aureus ATCC 6538; Conc. 0,025 % (vol/vol), B",+
same,croissance,"S. aureus ATCC 6538; Conc. 0,025 % (vol/vol), C",+
same,croissance,"S. aureus ATCC 6538; Conc. 0,025 % (vol/vol), non",+
same,concentration en substance active inhibant la croissance,S. aureus ATCC 6538,"0,0005%"
same,toxicité pour les cultures cellulaires,"[1]; solution à 0,05 %",aucune toxicité
same,croissance,"E. coli ATCC 11229; Conc. 0,1 % (vol/vol), A",+
same,croissance,"E. coli ATCC 11229; Conc. 0,1 % (vol/vol), B",+
same,croissance,"E. coli ATCC 11229; Conc. 0,1 % (vol/vol), C",+
same,croissance,"E. coli ATCC 11229; Conc. 0,1 % (vol/vol), non",+
same,croissance,"E. coli ATCC 11229; Conc. 0,05 % (vol/vol), A",+
same,croissance,"E. coli ATCC 11229; Conc. 0,5 % (vol/vol), A",+
same,croissance,"E. coli ATCC 11229; Conc. 0,05 % (vol/vol), B",+
same,croissance,"E. coli ATCC 11229; Conc. 0,5 % (vol/vol), B",+
same,croissance,"E. coli ATCC 11229; Conc. 0,05 % (vol/vol), C",+
same,croissance,"E. coli ATCC 11229; Conc. 0,5 % (vol/vol), C",+
same,croissance,"E. coli ATCC 11229; Conc. 0,05 % (vol/vol), non",+
same,croissance,"E. coli ATCC 11229; Conc. 0,5 % (vol/vol), non",-
same,croissance,"E. coli ATCC 11229; Conc. 1,0 % (vol/vol), A",+
same,croissance,"E. coli ATCC 11229; Conc. 1,0 % (vol/vol), B",+
same,croissance,"E. coli ATCC 11229; Conc. 1,0 % (vol/vol), C",+
same,croissance,"E. coli ATCC 11229; Conc. 1,0 % (vol/vol), non",-
same,croissance,"E. coli ATCC 11229; Conc. 0,00625 % (vol/vol), A",+
same,croissance,"E. coli ATCC 11229; Conc. 0,00625 % (vol/vol), B",+
same,croissance,"E. coli ATCC 11229; Conc. 0,00625 % (vol/vol), C",+
same,croissance,"E. coli ATCC 11229; Conc. 0,00625 % (vol/vol), non",+
same,croissance,"E. coli ATCC 11229; Conc. 0,0125 % (vol/vol), A",+
same,croissance,"E. coli ATCC 11229; Conc. 0,0125 % (vol/vol), B",+
same,croissance,"E. coli ATCC 11229; Conc. 0,0125 % (vol/vol), C",+
same,croissance,"E. coli ATCC 11229; Conc. 0,0125 % (vol/vol), non",+
same,croissance,"E. coli ATCC 11229; Conc. 0,025 % (vol/vol), A",+
same,croissance,"E. coli ATCC 11229; Conc. 0,025 % (vol/vol), B",+
same,croissance,"E. coli ATCC 11229; Conc. 0,025 % (vol/vol), C",+
same,croissance,"E. coli ATCC 11229; Conc. 0,025 % (vol/vol), non",+
same,concentration en substance active inhibant la croissance,E. coli ATCC 11229,"0,0005%"
